Measurements taken from patent US9932340B2, “Substituted indoles” (AbbVie Inc., priority 2014, dated 2018).

Molecular target: SUV420H1 enzyme (Homo sapiens, UniProt Q4FZB7)
Assay: TR-FRET SAH SUV420H1 enzyme inhibition assay
Assay type: biochemical
Conditions: Histone Peptide H4(8-30)me1 and SAM, overnight at room temp, TR-FRET detection of SAH, read-out: TR-FRET SAH_SUV420H1 IC50
Experimental: Test compounds were dispensed by a Labcyte Echo in 384-well low volume assay plates with 3-fold serial dilutions from 50 μM to 0.00075 μM. 5 μL of SUV420H1 enzyme (Abbvie) at 90 nM was added to all wells except the no enzyme control wells, and incubated for 30 minutes at room temp before 5 μL of Histone Peptide H4(8-30)me1 (Anaspec) at 5 nM and SAM at 4 nM was added to all wells. The plates were incubated in a humidified chamber overnight at room temp and then 10 μL of the detection reagent that contained RIPA buffer (50 mM Tris-HCl, pH 8.0, 150 mM sodium chloride, 1.0% Igepal CA-630 (NP-40), 0.5% sodium deoxycholate and 0.1% sodium dodecyl sulfate) (Sigma) with 2 nM of Terbium chelate anti S-adenosyl-L-homocysteine (SAH) (Abbvie) antibody and Oregon Green labeled SAH at 4 nM was added. The plates were further incubated for 4 hours at room temperature. The plates were read in a Perkin Elmer Envision using a TR-FRET protocol with Excitation set at 335 nm and Emission at 520 and 495 nm. To generate dose response curves the data is normalized to percent inhibition by setting the average of the plus and minus enzyme control wells to 0% and 100% inhibition respectively. The IC50 values for the compounds are generated by fitting the normalized data with Accelrys Assay Explorer 3.3 to a sigmoidal curve model using […] regression, Y=(100*x^n)/(K^n+x^n), where Y is the measured response, x is the compound concentration, n is the Hill Slope and K is the IC50 and the lower and higher asymptotes are constrained to 0 and 100 respectively.

Chain of SUV420H1 enzyme (Q4FZB7 whole entry): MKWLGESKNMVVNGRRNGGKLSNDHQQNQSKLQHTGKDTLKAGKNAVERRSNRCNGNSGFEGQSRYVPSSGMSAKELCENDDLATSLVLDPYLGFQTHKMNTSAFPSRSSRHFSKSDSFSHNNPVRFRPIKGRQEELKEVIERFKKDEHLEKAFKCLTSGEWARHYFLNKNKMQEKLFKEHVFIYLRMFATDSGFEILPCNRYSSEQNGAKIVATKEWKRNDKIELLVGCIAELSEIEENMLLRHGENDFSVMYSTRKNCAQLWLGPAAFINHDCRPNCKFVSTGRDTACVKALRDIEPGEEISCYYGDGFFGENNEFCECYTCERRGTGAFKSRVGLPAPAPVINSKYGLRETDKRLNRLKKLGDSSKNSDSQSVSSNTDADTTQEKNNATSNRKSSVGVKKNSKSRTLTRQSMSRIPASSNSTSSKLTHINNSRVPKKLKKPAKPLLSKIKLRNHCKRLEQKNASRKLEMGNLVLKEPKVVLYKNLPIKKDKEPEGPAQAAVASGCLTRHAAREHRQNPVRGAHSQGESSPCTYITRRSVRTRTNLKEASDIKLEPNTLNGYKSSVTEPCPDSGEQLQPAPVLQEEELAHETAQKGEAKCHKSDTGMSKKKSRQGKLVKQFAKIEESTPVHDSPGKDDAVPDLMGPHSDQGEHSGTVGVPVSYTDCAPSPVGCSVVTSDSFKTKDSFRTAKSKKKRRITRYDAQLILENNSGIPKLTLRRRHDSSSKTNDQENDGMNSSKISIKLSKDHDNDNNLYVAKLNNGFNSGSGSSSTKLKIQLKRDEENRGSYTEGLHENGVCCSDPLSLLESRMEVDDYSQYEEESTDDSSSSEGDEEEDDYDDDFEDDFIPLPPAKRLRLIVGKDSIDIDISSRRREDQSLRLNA

IC50 [nM]	SMILES
236	CS(=O)(=O)Nc1ccc(-c2cc(Cn3cnc4c(N)ncnc43)c3[nH]c(CN)cc3c2)cc1 [Example 41, N-(4-{2-(aminomethyl)-7-[(6-amino-9H-purin-9-yl)methyl]-1H-indol-5-yl}phenyl)methanesulfonamide]
450	CS(=O)(=O)Nc1cccc(-c2cc(Cn3cnc4c(N)ncnc43)c3[nH]c(CN)cc3c2)c1 [Example 42, N-(3-{2-(aminomethyl)-7-[(6-amino-9H-purin-9-yl)methyl]-1H-indol-5-yl}phenyl)methanesulfonamide]
560	COC(=O)c1ccc(-c2cc(Cn3cnc4c(N)ncnc43)c3[nH]c(CN)cc3c2)cc1 [Example 44, methyl 4-{2-(aminomethyl)-7-[(6-amino-9H-purin-9-yl)methyl]-1H-indol-5-yl}benzoate]
356	N#CCc1ccc(-c2cc(Cn3cnc4c(N)ncnc43)c3[nH]c(CN)cc3c2)cc1 [Example 45, (4-{2-(aminomethyl)-7-[(6-amino-9H-purin-9-yl)methyl]-1H-indol-5-yl}phenyl)acetonitrile]
541	CCNC(=O)c1cccc(-c2cc(Cn3cnc4c(N)ncnc43)c3[nH]c(CN)cc3c2)c1 [Example 46, 3-{2-(aminomethyl)-7-[(6-amino-9H-purin-9-yl)methyl]-1H-indol-5-yl}-N-ethylbenzamide]
354	CN(C)C(=O)c1ccc(-c2cc(Cn3cnc4c(N)ncnc43)c3[nH]c(CN)cc3c2)cc1 [Example 47, 4-{2-(aminomethyl)-7-[(6-amino-9H-purin-9-yl)methyl]-1H-indol-5-yl}-N,N-dimethylbenzamide]
1330	CN(C)C(=O)c1cccc(-c2cc(Cn3cnc4c(N)ncnc43)c3[nH]c(CN)cc3c2)c1 [Example 48, 3-{2-(aminomethyl)-7-[(6-amino-9H-purin-9-yl)methyl]-1H-indol-5-yl}-N,N-dimethylbenzamide]
193	CN(C)CCNC(=O)c1ccc(-c2cc(Cn3cnc4c(N)ncnc43)c3[nH]c(CN)cc3c2)cc1 [Example 49, 4-{2-(aminomethyl)-7-[(6-amino-9H-purin-9-yl)methyl]-1H-indol-5-yl}-N-[2-(dimethylamino)ethyl]benzamide]
223	NCc1cc2cc(-c3ccc(C(=O)NC4CC4)cc3)cc(Cn3cnc4c(N)ncnc43)c2[nH]1 [Example 50, 4-{2-(aminomethyl)-7-[(6-amino-9H-purin-9-yl)methyl]-1H-indol-5-yl}-N-cyclopropylbenzamide]
294	NCc1cc2cc(-c3cccc(C(=O)NC4CC4)c3)cc(Cn3cnc4c(N)ncnc43)c2[nH]1 [Example 51, 3-{2-(aminomethyl)-7-[(6-amino-9H-purin-9-yl)methyl]-1H-indol-5-yl}-N-cyclopropylbenzamide]
244	NCc1cc2cc(-c3cccc(N4CCOCC4)c3)cc(Cn3cnc4c(N)ncnc43)c2[nH]1 [Example 52, 9-({2-(aminomethyl)-5-[3-(morpholin-4-yl)phenyl]-1H-indol-7-yl}methyl)-9H-purin-6-amine]
590	NCc1cc2cc(-c3cccc(C(=O)N4CCOCC4)c3)cc(Cn3cnc4c(N)ncnc43)c2[nH]1 [Example 53, (3-{2-(aminomethyl)-7-[(6-amino-9H-purin-9-yl)methyl]-1H-indol-5-yl}phenyl)(morpholin-4-yl)methanone]
1180	CN1CCN(Cc2ccc(-c3cc(Cn4cnc5c(N)ncnc54)c4[nH]c(CN)cc4c3)cc2)CC1 [Example 54, 9-{[2-(aminomethyl)-5-{4-[(4-methylpiperazin-1-yl)methyl]phenyl}-1H-indol-7-yl]methyl}-9H-purin-6-amine]
293	CN1CCN(Cc2cccc(-c3cc(Cn4cnc5c(N)ncnc54)c4[nH]c(CN)cc4c3)c2)CC1 [Example 55, 9-{[2-(aminomethyl)-5-{3-[(4-methylpiperazin-1-yl)methyl]phenyl}-1H-indol-7-yl]methyl}-9H-purin-6-amine]
240	CN1CCN(C(=O)c2ccc(-c3cc(Cn4cnc5c(N)ncnc54)c4[nH]c(CN)cc4c3)cc2)CC1 [Example 56, (4-{2-(aminomethyl)-7-[(6-amino-9H-purin-9-yl)methyl]-1H-indol-5-yl}phenyl)(4-methylpiperazin-1-yl)methanone]
457	NCc1cc2cc(-c3ccc4c(c3)CCO4)cc(Cn3cnc4c(N)ncnc43)c2[nH]1 [Example 57, 9-{[2-(aminomethyl)-5-(2,3-dihydro-1-benzofuran-5-yl)-1H-indol-7-yl]methyl}-9H-purin-6-amine]
7880	NCc1cc2ccc(Cl)c(Cn3cnc4c(N)ncnc43)c2[nH]1 [Example 58, 9-{[2-(aminomethyl)-6-chloro-1H-indol-7-yl]methyl}-9H-purin-6-amine]
7510	C=Cc1ccc2cc(CN)[nH]c2c1Cn1cnc2c(N)ncnc21 [Example 59, 9-{[2-(aminomethyl)-6-ethenyl-1H-indol-7-yl]methyl}-9H-purin-6-amine]

IC50 [nM]	SMILES
38400	C=C(C)c1ccc2cc(CN)[nH]c2c1Cn1cnc2c(N)ncnc21 [Example 60, 9-{[2-(aminomethyl)-6-(prop-1-en-2-yl)-1H-indol-7-yl]methyl}-9H-purin-6-amine]
20300	NCc1cc2ccc(-c3ccccc3)c(Cn3cnc4c(N)ncnc43)c2[nH]1 [Example 61, 9-{[2-(aminomethyl)-6-phenyl-1H-indol-7-yl]methyl}-9H-purin-6-amine]
1120	NCc1cc2c(Cl)ccc(Cn3cnc4c(N)ncnc43)c2[nH]1 [Example 62, 9-{[2-(aminomethyl)-4-chloro-1H-indol-7-yl]methyl}-9H-purin-6-amine]
4030	C=Cc1ccc(Cn2cnc3c(N)ncnc32)c2[nH]c(CN)cc12 [Example 63, 9-{[2-(aminomethyl)-4-ethenyl-1H-indol-7-yl]methyl}-9H-purin-6-amine]
3080	CCc1ccc(Cn2cnc3c(N)ncnc32)c2[nH]c(CN)cc12 [Example 64, 9-{[2-(aminomethyl)-4-ethyl-1H-indol-7-yl]methyl}-9H-purin-6-amine]
5080	C=C(C)c1ccc(Cn2cnc3c(N)ncnc32)c2[nH]c(CN)cc12 [Example 65, 9-{[2-(aminomethyl)-4-(prop-1-en-2-yl)-1H-indol-7-yl]methyl}-9H-purin-6-amine]
4290	CC(C)c1ccc(Cn2cnc3c(N)ncnc32)c2[nH]c(CN)cc12 [Example 66, 9-{[2-(aminomethyl)-4-(propan-2-yl)-1H-indol-7-yl]methyl}-9H-purin-6-amine]
200	NCc1cc2c(C3=CCCC3)ccc(Cn3cnc4c(N)ncnc43)c2[nH]1 [Example 67, 9-{[2-(aminomethyl)-4-(cyclopent-1-en-1-yl)-1H-indol-7-yl]methyl}-9H-purin-6-amine]
972	Cn1cc(-c2ccc(Cn3cnc4c(N)ncnc43)c3[nH]c(CN)cc23)cn1 [Example 68, 9-{[2-(aminomethyl)-4-(1-methyl-1H-pyrazol-4-yl)-1H-indol-7-yl]methyl}-9H-purin-6-amine]
663	NCc1cc2c(-c3cccnc3)ccc(Cn3cnc4c(N)ncnc43)c2[nH]1 [Example 69, 9-{[2-(aminomethyl)-4-(pyridin-3-yl)-1H-indol-7-yl]methyl}-9H-purin-6-amine]
1000	NCc1cc2c(-c3ccccc3)ccc(Cn3cnc4c(N)ncnc43)c2[nH]1 [Example 70, 9-{[2-(aminomethyl)-4-phenyl-1H-indol-7-yl]methyl}-9H-purin-6-amine]
1810	NCc1cc2c(-c3ccccc3Cl)ccc(Cn3cnc4c(N)ncnc43)c2[nH]1 [Example 72, 9-{[2-(aminomethyl)-4-(2-chlorophenyl)-1H-indol-7-yl]methyl}-9H-purin-6-amine]
722	NCc1cc2c(-c3ccc(F)cc3)ccc(Cn3cnc4c(N)ncnc43)c2[nH]1 [Example 73, 9-{[2-(aminomethyl)-4-(4-fluorophenyl)-1H-indol-7-yl]methyl}-9H-purin-6-amine]
1180	NCc1cc2c(-c3ccccc3F)ccc(Cn3cnc4c(N)ncnc43)c2[nH]1 [Example 74, 9-{[2-(aminomethyl)-4-(2-fluorophenyl)-1H-indol-7-yl]methyl}-9H-purin-6-amine]
890	Cc1ccc(-c2ccc(Cn3cnc4c(N)ncnc43)c3[nH]c(CN)cc23)cc1 [Example 75, 9-{[2-(aminomethyl)-4-(4-methylphenyl)-1H-indol-7-yl]methyl}-9H-purin-6-amine]
1330	Cc1cccc(-c2ccc(Cn3cnc4c(N)ncnc43)c3[nH]c(CN)cc23)c1 [Example 76, 9-{[2-(aminomethyl)-4-(3-methylphenyl)-1H-indol-7-yl]methyl}-9H-purin-6-amine]
2630	Cc1ccccc1-c1ccc(Cn2cnc3c(N)ncnc32)c2[nH]c(CN)cc12 [Example 77, 9-{[2-(aminomethyl)-4-(2-methylphenyl)-1H-indol-7-yl]methyl}-9H-purin-6-amine]
632	COc1ccc(-c2ccc(Cn3cnc4c(N)ncnc43)c3[nH]c(CN)cc23)cc1 [Example 78, 9-{[2-(aminomethyl)-4-(4-methoxyphenyl)-1H-indol-7-yl]methyl}-9H-purin-6-amine]
